Experimental data: the supplement of paper PMC11061612

Experiments:
[1] = tested on: KYSE-270 (Esophageal Squamous Cell Carcinoma); assay: combination Emax (second highest fraction inhibited in the dose matrix, 72 h); higher = more inhibition; extreme values may be limits of the assay
In short: (§1)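 Cell lines grown in DMEM/F12 or RPMI with 10% FBS were plated in 1536-well plates and held 24 hours at 37°C, 5% CO2 before 72 hours of exposure to two-drug dose matrices, with DMSO typically at 0.2%. CellTiter-Glo 2.0 luminescence gave viability, which was converted to inhibition. Vehicle wells were set to 0 and blank wells to 1. Combination Emax is the second-highest inhibition in the matrix, and Bliss excess is the observed combination effect minus the expected EA + EB − EA·EB, where EA and EB are the single-agent effects.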

[2] = tested on: H9 (T-Cell Non-Hodgkin's Lymphoma); assay: as above
In short: as §1

Compound | combination Emax [1] | combination Emax [2]
Cc1cc2ncnn2cc1Nc1ncc2c(n1)n(C1CCOCC1)c(=O)n2C [AZD7648] + C=CCn1c(=O)c2cnc(Nc3ccc(N4CCN(C)CC4)cc3)nc2n1-c1cccc(C(C)(C)O)n1 [AZD1775] (first compound max 10 µM, partner max 1 µM) | 0.594 | 0.969
CC1(C)CCC(CN2CCN(c3ccc(C(=O)NS(=O)(=O)c4ccc(NCC5CCOCC5)c([N+](=O)[O-])c4)c(Oc4cnc5[nH]ccc5c4)c3)CC2)=C(c2ccc(Cl)cc2)C1 [Venetoclax] + CCN(CCO)CCCOc1ccc2c(Nc3cc(CC(=O)Nc4cccc(F)c4)[nH]n3)ncnc2c1 [AZD2811] (first compound max 1 µM, 7x7, partner max 1 µM) | 0.716 | 0.888
C[C@@H]1COCCN1c1cc(C2([S@](C)(=N)=O)CC2)nc(-c2ccnc3[nH]ccc23)n1 [AZD6738] + O=C(c1cc(Cc2n[nH]c(=O)c3ccccc23)ccc1F)N1CCN(C(=O)C2CC2)CC1 [Olaparib] (first compound max 10 µM, 7x7, partner max 10 µM) | 0.794 | 0.911
CN(CCO)CC[C@H](CSc1ccccc1)Nc1ccc(S(=O)(=O)NC(=O)c2ccc(N3CCC([C@@H](O)c4ccccc4-c4ccc(Cl)cc4)CC3)cc2)cc1S(=O)(=O)C(F)(F)F [AZD4320] + CN(C)CCCOc1ccc(-c2ccc3ncc4c(c3c2)n(C2CCOCC2)c(=O)n4C)cn1 [AZD0156] (first compound max 1 µM, 7x7, partner max 1 µM) | 0.0949 | 0.996
Cc1c2c(nn1C)CSCc1cc(n(C)n1)CSc1cc(c3ccccc3c1)OCCCc1c(C(=O)O)n(C)c3c-2c(Cl)ccc13 [AZD5991] + CN(C)CCCOc1ccc(-c2ccc3ncc4c(c3c2)n(C2CCOCC2)c(=O)n4C)cn1 [AZD0156] (first compound max 1 µM, 7x7, partner max 1 µM) | 0.542 | 0.834
CCN(CCO)CCCOc1ccc2c(Nc3cc(CC(=O)Nc4cccc(F)c4)[nH]n3)ncnc2c1 [AZD2811] + O=C(c1cc(Cc2n[nH]c(=O)c3ccccc23)ccc1F)N1CCN(C(=O)C2CC2)CC1 [Olaparib] (first compound max 1 µM, 7x7, partner max 10 µM) | 0.322 | 0.71
CN(C)CCCOc1ccc(-c2ccc3ncc4c(c3c2)n(C2CCOCC2)c(=O)n4C)cn1 [AZD0156] + C[C@@H]1COCCN1C2=NC(=NC(=C2)C3(CC3)[S@](=N)(=O)C)C4=C5C=CNC5=NC=C4 [AZD6738] (first compound max 1 µM, 7x7, partner max 10 µM) | 0.914 | 0.972
CC1(C)CCC(CN2CCN(c3ccc(C(=O)NS(=O)(=O)c4ccc(NCC5CCOCC5)c([N+](=O)[O-])c4)c(Oc4cnc5[nH]ccc5c4)c3)CC2)=C(c2ccc(Cl)cc2)C1 [Venetoclax] + CN(C)CCCOc1ccc(-c2ccc3ncc4c(c3c2)n(C2CCOCC2)c(=O)n4C)cn1 [AZD0156] (first compound max 1 µM, 7x7, partner max 1 µM) | 0.785 | 0.156
C=CCn1c(=O)c2cnc(Nc3ccc(N4CCN(C)CC4)cc3)nc2n1-c1cccc(C(C)(C)O)n1 [AZD1775] + C[C@@H]1COCCN1C2=NC(=NC(=C2)C3(CC3)[S@](=N)(=O)C)C4=C5C=CNC5=NC=C4 [AZD6738] (first compound max 1 µM, partner max 10 µM) | 1 | 1
CC1(C)CCC(CN2CCN(c3ccc(C(=O)NS(=O)(=O)c4ccc(NCC5CCOCC5)c([N+](=O)[O-])c4)c(Oc4cnc5[nH]ccc5c4)c3)CC2)=C(c2ccc(Cl)cc2)C1 [Venetoclax] + C[C@@H]1COCCN1C2=NC(=NC(=C2)C3(CC3)[S@](=N)(=O)C)C4=C5C=CNC5=NC=C4 [AZD6738] (first compound max 1 µM, 7x7, partner max 10 µM) | 0.869 | 1
CN(CCO)CC[C@H](CSc1ccccc1)Nc1ccc(S(=O)(=O)NC(=O)c2ccc(N3CCC([C@@H](O)c4ccccc4-c4ccc(Cl)cc4)CC3)cc2)cc1S(=O)(=O)C(F)(F)F [AZD4320] + C=CCn1c(=O)c2cnc(Nc3ccc(N4CCN(C)CC4)cc3)nc2n1-c1cccc(C(C)(C)O)n1 [AZD1775] (first compound max 1 µM, partner max 1 µM) | 0.632 | 1
CC1(C)CCC(CN2CCN(c3ccc(C(=O)NS(=O)(=O)c4ccc(NCC5CCOCC5)c([N+](=O)[O-])c4)c(Oc4cnc5[nH]ccc5c4)c3)CC2)=C(c2ccc(Cl)cc2)C1 [Venetoclax] + Cc1cc2ncnn2cc1Nc1ncc2c(n1)n(C1CCOCC1)c(=O)n2C [AZD7648] (first compound max 1 µM, 7x7, partner max 10 µM) | 0.675 | 0.396
Cc1c2c(nn1C)CSCc1cc(n(C)n1)CSc1cc(c3ccccc3c1)OCCCc1c(C(=O)O)n(C)c3c-2c(Cl)ccc13 [AZD5991] + C[C@@H](Nc1cc(F)cc(F)c1)c1cc(C(=O)N(C)C)cc2c(=O)cc(N3CCOCC3)oc12 [AZD8186] (first compound max 1 µM, 7x7, partner max 3 µM) | 0.622 | 0.574
COc1cccc2c1C(=O)c1c(O)c3c(c(O)c1C2=O)C[C@@](O)(C(=O)CO)C[C@@H]3O[C@H]1C[C@H](N)[C@H](O)[C@H](C)O1 [Doxorubicin] + Cc1cc2ncnn2cc1Nc1ncc2c(n1)n(C1CCOCC1)c(=O)n2C [AZD7648] (first compound max 1 µM, 7x7, partner max 10 µM) | 0.944 | 1
CC(=O)Nc1cccc(-n2c(=O)n(C3CC3)c(=O)c3c(Nc4ccc(I)cc4F)n(C)c(=O)c(C)c32)c1 [Trametinib] + Cc1nc(-c2cn3c(n2)-c2ccc(-c4cnn(C(C)(C)C(N)=O)c4)cc2OCC3)n(C(C)C)n1 [Taselisib] (first compound max 1 µM, 7x7, partner max 10 µM) | 0.8 | 0.984
Cc1cc2ncnn2cc1Nc1ncc2c(n1)n(C1CCOCC1)c(=O)n2C [AZD7648] + CCN(CCO)CCCOc1ccc2c(Nc3cc(CC(=O)Nc4cccc(F)c4)[nH]n3)ncnc2c1 [AZD2811] (first compound max 10 µM, 7x7, partner max 1 µM) | 0.183 | 0.722
Cc1c2c(nn1C)CSCc1cc(n(C)n1)CSc1cc(c3ccccc3c1)OCCCc1c(C(=O)O)n(C)c3c-2c(Cl)ccc13 [AZD5991] + Cc1cc2ncnn2cc1Nc1ncc2c(n1)n(C1CCOCC1)c(=O)n2C [AZD7648] (first compound max 1 µM, 7x7, partner max 10 µM) | 0.508 | 0.722
COc1cccc(OCCCN)c1-c1cc(Nc2cnc(C#N)cn2)n[nH]1 [Prexasertib] + CCc1c2c(nc3ccc(O)cc13)-c1cc3c(c(=O)n1C2)COC(=O)[C@]3(O)CC [SN-38] (first compound max 1 µM, 7x7, partner max 0.3 µM) | 1 | 1
CCN(CCO)CCCOc1ccc2c(Nc3cc(CC(=O)Nc4cccc(F)c4)[nH]n3)ncnc2c1 [AZD2811] + C[C@@H]1COCCN1C2=NC(=NC(=C2)C3(CC3)[S@](=N)(=O)C)C4=C5C=CNC5=NC=C4 [AZD6738] (first compound max 1 µM, 7x7, partner max 10 µM) | 0.764 | 0.977
CN(CCO)CC[C@H](CSc1ccccc1)Nc1ccc(S(=O)(=O)NC(=O)c2ccc(N3CCC([C@@H](O)c4ccccc4-c4ccc(Cl)cc4)CC3)cc2)cc1S(=O)(=O)C(F)(F)F [AZD4320] + C1CN(CCC1(C(=O)N[C@@H](CCO)C2=CC=C(C=C2)Cl)N)C3=NC=NC4=C3C=CN4 [Capivasertib] (first compound max 1 µM, 7x7, partner max 3 µM) | 0.23 | 0.986
CC1(C)CCC(CN2CCN(c3ccc(C(=O)NS(=O)(=O)c4ccc(NCC5CCOCC5)c([N+](=O)[O-])c4)c(Oc4cnc5[nH]ccc5c4)c3)CC2)=C(c2ccc(Cl)cc2)C1 [Venetoclax] + C[C@@H](Nc1cc(F)cc(F)c1)c1cc(C(=O)N(C)C)cc2c(=O)cc(N3CCOCC3)oc12 [AZD8186] (first compound max 1 µM, 7x7, partner max 3 µM) | 0.653 | 0.299
Cc1c2c(nn1C)CSCc1cc(n(C)n1)CSc1cc(c3ccccc3c1)OCCCc1c(C(=O)O)n(C)c3c-2c(Cl)ccc13 [AZD5991] + C1CN(CCC1(C(=O)N[C@@H](CCO)C2=CC=C(C=C2)Cl)N)C3=NC=NC4=C3C=CN4 [Capivasertib] (first compound max 1 µM, 7x7, partner max 3 µM) | 0.505 | 0.847
CC1(C)CCC(CN2CCN(c3ccc(C(=O)NS(=O)(=O)c4ccc(NCC5CCOCC5)c([N+](=O)[O-])c4)c(Oc4cnc5[nH]ccc5c4)c3)CC2)=C(c2ccc(Cl)cc2)C1 [Venetoclax] + C=CCn1c(=O)c2cnc(Nc3ccc(N4CCN(C)CC4)cc3)nc2n1-c1cccc(C(C)(C)O)n1 [AZD1775] (first compound max 1 µM, partner max 1 µM) | 0.946 | 0.966
CN(CCO)CC[C@H](CSc1ccccc1)Nc1ccc(S(=O)(=O)NC(=O)c2ccc(N3CCC([C@@H](O)c4ccccc4-c4ccc(Cl)cc4)CC3)cc2)cc1S(=O)(=O)C(F)(F)F [AZD4320] + C[C@@H]1COCCN1C2=NC(=NC(=C2)C3(CC3)[S@](=N)(=O)C)C4=C5C=CNC5=NC=C4 [AZD6738] (first compound max 1 µM, 7x7, partner max 10 µM) | 0.78 | 1
CC1(C)CCC(CN2CCN(c3ccc(C(=O)NS(=O)(=O)c4ccc(NCC5CCOCC5)c([N+](=O)[O-])c4)c(Oc4cnc5[nH]ccc5c4)c3)CC2)=C(c2ccc(Cl)cc2)C1 [Venetoclax] + Cn1cnc2c(F)c(Nc3ccc(Br)cc3Cl)c(C(=O)NOCCO)cc21 [Selumetinib] (first compound max 1 µM, 7x7, partner max 3 µM) | 0.554 | 0.931
